From US20210386754A1, “COMPOSITIONS AND METHODS FOR TREATING ATHEROSCLEROTIC VASCULAR DISEASE” (AUGUSTA UNIVERSITY RESEARCH INSTITUTE, INC., priority 2020, published 2021)
“Also recorded” adds a separate entry of the source.

Columns and labels:
[1] = test system: lipopolysaccharide (LPS)-treated ApoE-/- mice; details: Zhao et al. 2012; cited from earlier work
[2] = test system: pre-hypertensive patients; details: amiloride monotherapy; independent of blood pressure lowering effect; cited from earlier work
[3] = test system: macropinocytosis in macrophages; test: Unbiased screen of FDA-approved drug library for inhibition of macrophage macropinocytosis; assay type: cell-based; details: screen of an FDA-approved drug library
[4] = test system: hypercholesterolemic mice (PCSK9-AAV-mediated LDLR knockdown); test: Atherosclerosis model: PCSK9-AAV, partial LCA ligation, Western diet; assay type: in vivo, mouse
Source text: Mice were given a single injection of AAV-PCSK9 (1×1011 VG) and fed a Western diet (Envigo, TD.88137, Indianapolis, Ind.). One week after AAV-PCSK9 injection, mice underwent partial carotid ligation surgery as previously described (67) and Western diet was continued for another 3 weeks. In separate experiments, mice were given a single injection of AAV-PCSK9 (1×1011 VG) and fed a Western diet for 16 weeks. Mice were anesthetized (isoflurane inhalation, 3%) and exsanguinated. Blood was collected from left ventricle using a heparinized syringe fitted with a 21 G needle. Aortic arch and carotid arteries were collected, and gross macroscopic images were acquired. For molecular histology studies, carotids and aortic arch were fixed in 4% paraformaldehyde (PFA), embedded in OCT compound and stored at −80° C. until use.
ORO staining: Atherosclerosis development in carotid arteries and whole aorta were studied initially by gross imaging followed by Oil Red O (ORO) staining and plaque quantification. Briefly, the entire aorta was isolated, cleaned of peri-adventitial fat, fixed and imaged on the surface of black silicone-coated dissection dishes. Left carotid arteries were embedded in OCT and 10 μm thick cross-sections were prepared. The arteries were divided into 3 regions based on their distance from the aortic arch: proximal (0-400 μm), middle (2,000-2,400 μm) and distal (4,000-4,400 μm). Frozen sections and whole aortas were then stained with ORO solution (2%) and images were taken using light microscope equipped with a camera under 20× and 1.6× objective lens. The total area, lumen area and ORO positive area were measured for six sections/anatomical position per mouse using Image J software. The ratio of ORO positive area to arterial area is represented as plaque area. Plasma total cholesterol concentrations were determined by the Amplex™ Red Cholesterol Assay Kit (ThermoFisher, Rockford, Ill.). Plasma lipid profiles were obtained by column fractionation and measurements of fraction cholesterol content.
Hematoxylin and Eosin (H&E) or Masson's trichrome staining: Frozen sections were also used for Hematoxylin and Eosin (H&E) or Masson's trichrome staining following standard procedures to evaluate the lesion size and collagen content, respectively.
Orcein and Martius Scarlet Blue (OMSB) staining: OMSB was used for qualitative and quantitative analysis of atherosclerotic plaques as previously described. Briefly, left carotid arteries were dissected out, fixed in 4% buffered paraformaldehyde (pH=7.4) for at least 48 hr, and then routinely processed and embedded in paraffin (tissue processor TP1020; Leica, Wetzlar, Germany). Cross sections were cut every 5 m along the artery (starting from the proximal end) and mounted serially on silanized slides. Sections were stained and mounted automatically using Leica ST5010 Autostainer XL combined with Leica CV5030 Glass Coverslip. Deparaffinized sections through xylene and ethanol, and rehydrate to water. Postfix sections in Bouin's fixative at 56° C. for 1 hour, then rinse for 10 min in tap water to remove traces of picric acid. Stain with orcein for 20 min at 56° C. Differentiate in acidic alcohol for 2 min and then transfer to 96% ethanol for 30 s. Stain with martius yellow for 3 min and rinse in distilled water (2×2 min). Stain with crystal scarlet for 10 min. Differentiate with phosphotungstic acid 2 min and transfer to distilled water (for about 10 s). Stain with methyl blue 5 min. Rinse in acetic acid water 3 min, dehydrate through ethanol and carbol-xylene, clear in xylene, and mount in DPX or other resin. Staining of collagen with picrosirius red. The sections were examined and digital images of stained arteries were recorded using Olympus dotSlide system (Olympus, Tokyo, Japan). Segmentation algorithm allowed to distinguish vessel wall area, lumen area, plaque area, and area of the plaque occupied by collagen. The results were presented as areas of identified components in μm2. […]

THP-1 macrophages = test: Foam cell formation / nLDL macropinocytosis, Nile Red FACS; assay type: cell-based, human; details: for macropinocytosis of nLDL (Nile Red fluorescence): M-CSF 100 ng/mL, PDGF 200 ng/mL
Method: Flow cytometry experiments were performed using the BD Accuri C6 flow cytometer using a standard protocol.
Foam cell formation: THP-1 macrophages or bone marrow-derived macrophages were treated with vehicle, known macropinocytosis stimulators (PMA 1 μM, M-CSF 100 ng/mL or PDGF 200 ng/mL)+/− macropinocytosis inhibitors (imipramine 10 μM or EIPA 25 μM; 1 hour pre-incubation) in the presence of nLDL, ox-LDL, or ac-LDL ([…]) for 24 hours. Cells were fixed in 2% PFA and stained with Nile Red (50 ng/mL) for 7 min. Fluorescence intensity was measured using the FL3 channel for Nile Red (Ex: 488 nm, Em: 670 nm).

[5] = cited from earlier work
[6] = imipramine-treated vs control mice

For `N=C(N)NC(=O)c1nc(Cl)c(N)nc1N` [amiloride], the lesion development [1] is listed as “reduces” and the “pulse wave velocity (PWV)” value [2] is listed as “improves”.

In the case of `CN(C)CCCN1c2ccccc2CCc2ccccc21` [imipramine], the IC50 [3] is reported as 131 nM, the “atherosclerotic lesion formation (OMSB staining)” value ([4]; imipramine 9 mg/mL, pump rate 0.11 μl/hour, sc, LDLR-knockdown mice, vs vehicle) is reported as “significantly attenuates; also recorded: attenuated” and the “collagen area (collagen %)” value ([4]; imipramine sc vs vehicle) is reported as “inhibited”. For the same molecule, the “relative internal vessel area (IVA %)” value ([4]; imipramine sc vs vehicle) was “inhibited”, the blood pressure [4, 6] was “no significant differences” and the body weight [4, 6] was “no significant differences”. For the same molecule, the fat mass [4, 6] was “no significant differences”, the “whole body fluid content” value [4, 6] was “no significant differences” and the “M-CSF- and PDGF-induced intracellular lipid accumulation following nLDL treatment (Nile Red)” value (THP-1 macrophages; imipramine 1 hour preincubation, 100 ng/mL M-CSF or 200 ng/mL PDGF, 50 μg/mL nLDL, 24 hours) was “inhibited”. The oral bio-availability [5] was 95%.

In the case of PDGF, the “macropinocytosis of nLDL (Nile Red fluorescence)” value (THP-1 macrophages) is reported as “stimulated”.

In the case of catalase, the “M-CSF- and PDGF-induced nLDL internalization” value (THP-1 macrophages; non-pegylated SOD 100 U/mL and/or catalase 250 U/mL, 1 hr pretreatment, 50 μg/mL nLDL, 24 hours) is reported as “did not inhibit”.

B1: M-CSF: macrophage colony-stimulating factor, physiological stimulator of macropinocytosis (protein, UniProt P09603 33-554, looked up)
Macrophage colony-stimulating …: EEVSEYCSHMIGSGHLQSLQRLIDSQMETSCQITFEFVDQEQLKDPVCYLKKAFLLVQDIMEDTMRFRDNTPNAIAIVQLQELSLRLKSCFTKDYEEHDKACVRTFYETPLQLLEKVKNVFNETKNLLDKDWNIFSKNCNNSFAECSSQDVVTKPDCNCLYPKAIPSSDPASVSPHQPLAPSMAPVAGLTWEDSEGTEGSSLLPGEQPLHTVDPGSAKQRPPRSTCQSFEPPETPVVKDSTIGGSPQPRPSVGAFNPGMEDILDSAMGTNWVPEEASGEASEIPVPQGTELSPSRPGGGSMQTEPARPSNFLSASSPLPASAKGQQPADVTGTALPRVGPVRPTGQDWNHTPQKTDHPSALLRDPPEPGSPRISSLRPQGLSNPSTLSAQPQLSRSHSSGSVLPLGELEGRRSTRDRRSPAEPEGGPASEGAARPLPRFNSVPLTDTGHERQSEGSFSPQLQESVFHLLVPSVILVLLAVGGLLFYRWRRRSHQEPQRADSPLEQPEGSPLTQDDRQVELPV
In the case of B1, the “macropinocytosis of nLDL (Nile Red fluorescence)” value (THP-1 macrophages) is reported as “stimulated”.
